# Test results published in ChEMBL document CHEMBL1126382, “Synthesis and anti-HIV activity of pyrrolo-[1,2-d]-(1,4)-benzodiazepin-6-ones” (Bioorg Med Chem Lett, 1992).
# Experiments:
# MT2 [1] = assay: Inhibition concentration required to protect 50% of cells(MT-2) from HIV induced death was determined; type: functional; details: Homo sapiens, read-out: TC50 (the source's name)
# MT2 [2] = assay: Inhibition concentration required to protect 90% of cells(MT-2) from HIV induced death was determined; type: functional; details: Homo sapiens
# [3] = system: Human immunodeficiency virus 1; assay: (§1) Inhibitory concentration against HIV-1 was determined; type: functional, organism-based
# MT2 [4] = assay: Inhibition concentration required to protect 50% of cells(MT-2) from HIV-1(3b) induced death was determined; type: functional; details: Homo sapiens, read-out: TC50 (the source's name)
# MT2 [5] = assay: Inhibition concentration required to protect 90% of cells(MT-2) from HIV-1(3b) induced death was determined; type: functional; details: Homo sapiens
# MT2 [6] = assay: Inhibition concentration required to protect 90% of cells(MT-2) from HIV-1(rf) induced death was determined; type: functional; details: Homo sapiens
# MT2 [7] = assay: Inhibition concentration required to protect 50% of cells(MT-2) from HIV-1(rod) induced death was determined; type: functional, cell-based; details: Homo sapiens
# [8] = system: Human immunodeficiency virus 1; assay: as §1; type: functional
Compound,CC50 (MT2 [1]),IC90 (MT2 [2]),other results
O=Cc1ccc2n1[C@@H](Cc1ccccc1)C(=O)Nc1ccccc1-2,2.5 µg/mL,> 2.5 µg/mL,
O=C1Cn2cccc2-c2ccccc2N1,> 50 µg/mL,> 50 µg/mL,
Cc1ccnc2c1NC(=O)c1cccnc1N2C1CC1 [NEVIRAPINE],,,IC50 [3]: 40 nM
CC(C)=CCN1Cc2cc(Cl)cc3nc(S)n(c23)CC1C (stereo not drawn) [TIBO],,,CC50 (MT2 [4]): 55 µg/mL; IC90 (MT2 [5]): 1.5 µg/mL; IC90 (MT2 [6]): 0.15 µg/mL; IC50 (MT2 [7]): > 50 µg/mL
CN1C(=O)[C@H](Cc2ccc(O)cc2)n2cccc2-c2ccccc21,5.2 µg/mL,> 5.2 µg/mL,
O=Cc1ccc2n1CC(=O)Nc1ccccc1-2,> 50 µg/mL,> 50 µg/mL,
O=C1Nc2ccccc2-c2cccn2[C@H]1Cc1ccc(O)cc1,23 µg/mL,> 23 µg/mL,
CC(C)=CCN1Cc2cccc3[nH]c(=S)n(c23)C[C@@H]1C,,,IC50 [3]: 28 nM
O=C(O)C[C@H]1C(=O)Nc2ccccc2-c2cccn21,> 50 µg/mL,> 50 µg/mL,
O=C1Nc2ccccc2-c2cccn2[C@H]1Cc1ccccc1,21 µg/mL,> 21 µg/mL,
O=C1[C@H](Cc2ccc(O)cc2)n2cccc2-c2ccccc2N1CCc1ccc(O)cc1,10 µg/mL,0.8 µg/mL,
O=C1c2ccccc2C(=O)N1CCCCCN1C(=O)[C@H](Cc2ccc(O)cc2)n2cccc2-c2ccccc21,> 50 µg/mL,2.6 µg/mL,
O=C1c2ccccc2C(=O)N1CCCCN1C(=O)[C@H](Cc2ccc(O)cc2)n2cccc2-c2ccccc21,23 µg/mL,> 23 µg/mL,
O=C(C[C@H]1C(=O)Nc2ccccc2-c2cccn21)OCc1ccccc1,10 µg/mL,0.29 µg/mL,CC50 (MT2 [4]): > 10 µg/mL; IC90 (MT2 [5]): > 0.3 µg/mL; IC90 (MT2 [6]): 0.29 µg/mL; IC50 (MT2 [7]): 3 µg/mL; IC90 [8]: 800 nM
